According to patent US4616087A, “2,5-bis alkyl sulfonyl and 2,5-bis alkyl thio substituted-pyridines” (The Dow Chemical Company, priority 1982, dated 1986):

system: rhinovirus type 1A (RV-1A), rhinovirus type 2 (RV-2) or Coxsackie A21 virus (Cox A21); assay: Tissue Culture testing, antiviral activity (virus not specified); assay type: cell-based; conditions: HeLa cells; qualitative
Experimental: Monolayered HeLa cells in 16 millimeter (mm) tissue culture dishes were treated with 1 ml of culture medium (Eagles medium supplemented with fetal calf serum) containing subject compound at an appropriate concentration or containing no compound at all. Culture media such as those described herein are more fully described in standard texts, as for example, Kuchler's Biochemical Methods in Cell Culture and Virology, Dowden, Hutchinson and Ross, Inc., Stroudsberg, PA (1977). Following treatment, cells were challenged with 0.05 ml of rhinovirus type 1A (RV-1A), rhinovirus type 2 (RV-2) or Coxsackie A21 virus (Cox A21) in culture medium. Some of the compounds were also tested against rhinovirus type 5 (RV-5), rhinovirus type 8 (RV-8) or rhinovirus type 64 (RV-64). Cell controls received no viruses.

Row | Structure (SMILES) | antiviral activity in the Tissue Culture testing
1 | O=S(=O)(Cc1ccccc1)c1ccc(Oc2ccc(Cl)c(Cl)c2)nc1 [2-(3,4-dichlorophenoxy)-5-((phenylmethyl)sulfonyl)pyridine] | exhibiting antiviral activity
2 | CS(=O)(=O)c1ccc(Oc2ccc(Cl)c(Cl)c2)nc1 [2-(3,4-dichlorophenoxy)-5-(methylsulfonyl)pyridine] | exhibiting antiviral activity
3 | CC(=O)c1ccc(Oc2ccc(S(C)(=O)=O)cn2)cc1 [1-(4-((5-(methylsulfonyl)-2-pyridinyl)oxy)phenyl)ethanone] | exhibiting antiviral activity
4 | O=S(=O)(c1ccc(Oc2ccc(Br)cc2)nc1)C1CCCCC1 [2-(4-bromophenoxy)-5-(cyclohexylsulfonyl)pyridine] | exhibiting antiviral activity
5 | CC(C)(C)c1ccc(Oc2ccc(S(C)(=O)=O)cn2)cc1 [2-(4-(1,1-dimethylethyl)phenoxy)-5-(methylsulfonyl)pyridine] | exhibiting antiviral activity
6 | CS(=O)(=O)c1ccc(Oc2ccc(Oc3ccccc3)cc2)nc1 [5-(methylsulfonyl)-2-(4-phenoxyphenoxy)pyridine] | exhibiting antiviral activity
7 | O=S(=O)(c1ccccc1)c1ccc(Oc2ccc(Br)cc2)nc1 [2-(4-bromophenoxy)-5-(phenylsulfonyl)pyridine] | exhibiting antiviral activity
8 | CCS(=O)(=O)c1ccc(Oc2ccc(C(=O)c3ccccc3)cc2)nc1 [(4-((5-(ethylsulfonyl)-2-pyidinyl)oxy)phenyl)phenylmethanone] | exhibiting antiviral activity
9 | CS(=O)(=O)c1cccnc1Oc1ccc(C(=O)c2ccccc2)cc1 [(4-((3-(methylsulfonyl)-2-pyridinyl)oxy)phenyl)phenylmethanone] | exhibiting antiviral activity
10 | CS(=O)(=O)c1ccc(Oc2ccc(C#N)cc2)nc1 [4-((5-(methylsulfonyl)-2-pyridinyl)oxy)benzonitrile] | exhibiting antiviral activity
11 | CS(=O)(=O)c1ccc(Oc2ccc(C(=O)c3ccccc3)cc2)nc1 [(4-((5-(methylsulfonyl)-2-pyridinyl)oxy)phenyl)phenylmethanone] | exhibiting antiviral activity
12 | CCS(=O)(=O)c1ccc(Oc2ccc(Cl)cc2)nc1 [2-(4-chlorophenoxy)-5-(ethylsulfonyl)pyridine] | exhibiting antiviral activity
13 | CC(C)S(=O)(=O)c1ccc(Oc2ccc(C(=O)c3ccccc3)cc2)nc1 [(4-((5-((1-methylethyl)sulfonyl)-2-pyridinyl)oxy)phenyl)phenylmethanone] | exhibiting antiviral activity
14 | CC(=O)c1ccc(Oc2ccc(S(=O)(=O)C(C)C)cn2)cc1 [1-(4-((5-((1-methylethyl)sulfonyl)-2-pyridinyl)oxy)phenyl)ethanone] | exhibiting antiviral activity
15 | CS(=O)(=O)c1ccc(Oc2ccc(Cl)cc2)nc1 [2-(4-chlorophenoxy)-5-(methylsulfonyl)pyridine] | exhibiting antiviral activity
16 | O=C(c1ccccc1)c1ccc(Oc2ccc(S(=O)(=O)C3CCCCC3)cn2)cc1 [(4-((5-(cyclohexylsulfonyl)-2-pyridinyl)oxy)phenyl)phenylmethanone] | exhibiting antiviral activity
17 | CCS(=O)(=O)c1ccc(Oc2cc(Cl)c(Cl)cc2Cl)nc1 [5-(ethylsulfonyl)-2-(2,4,5-trichlorophenoxy)pyridine] | exhibiting antiviral activity
18 | CS(=O)(=O)c1ccc(Oc2cccc(Br)c2)nc1 [2-(3-bromophenoxy)-5-(methylsulfonyl)pyridine] | exhibiting antiviral activity
19 | CCCCCCS(=O)(=O)c1ccc(Oc2ccc(C(=O)c3ccccc3)cc2)nc1 [(4-((5-(n-hexylsulfonyl)-2-pyridinyl)oxy)phenyl)phenylmethanone] | exhibiting antiviral activity
20 | CCS(=O)(=O)c1cccnc1Oc1ccc(Cl)c(Cl)c1 [2-(3,4-dichlorophenoxy)-3-(ethylsulfonyl)pyridine] | exhibiting antiviral activity
21 | CS(=O)(=O)c1ccc(Oc2ccc(Br)cc2)nc1 [2-(4-bromophenoxy)-5-(methylsulfonyl)pyridine] | exhibiting antiviral activity
22 | CCS(=O)(=O)c1ccc(Oc2ccc(Oc3ccccc3)cc2)nc1 [5-(ethylsulfonyl)-2-(4-phenoxyphenoxy)pyridine] | exhibiting antiviral activity
23 | CS(=O)(=O)c1ccc(Oc2cccc(C#N)c2)nc1 [3-((5-(methylsulfonyl)-2-pyridinyl)oxy)benzonitrile] | exhibiting antiviral activity
24 | CCS(=O)(=O)c1ccc(Oc2ccc(Cl)c(Cl)c2)nc1 [2-(3,4-dichlorophenoxy)-5-(ethylsulfonyl)pyridine] | exhibiting antiviral activity
25 | O=S(=O)(Cc1ccccc1)c1ccc(Oc2ccc(Br)cc2)nc1 [2-(4-bromophenoxy)-5-((phenylmethyl)sulfonyl)pyridine] | exhibiting antiviral activity
26 | CC(C)S(=O)(=O)c1ccc(Oc2ccc(Br)cc2)nc1 [2-(4-bromophenoxy)-5-((1-methylethyl)sulfonyl)pyridine] | exhibiting antiviral activity
27 | O=S(=O)(c1ccc(Oc2ccc(Cl)c(Cl)c2)nc1)C1CCCCC1 [2-(3,4-dichlorophenoxy)-5-(cyclohexylsulfonyl)pyridine] | exhibiting antiviral activity
28 | CSc1ccc(Oc2ccc(S(C)(=O)=O)cn2)cc1 [2-(4-(methylthio)phenoxy)-5-(methylsulfonyl)pyridine] | exhibiting antiviral activity
29 | CCCCCCS(=O)(=O)c1ccc(Oc2ccc(Cl)c(Cl)c2)nc1 [2-(3,4-dichlorophenoxy)-5-(n-hexylsulfonyl)pyridine] | exhibiting antiviral activity
